According to US12479827B2, “Heteroaromatic carboxamide derivatives as plasma kallikrein inhibitors” (Boehringer Ingelheim International GmbH, priority 2020, dated 2025):
Peptide text beside a SMILES is read from it. * marks the point of attachment. AMC = Cc1cc(=O)oc2cc(N*)ccc12

Assays:
Assay type in all cases: biochemical
[1] = target: T1, PKK in kaolin activated human platelet poor plasma (Homo sapiens, UniProt P03952); test: Inhibition of PKK in kaolin activated human PPP; settings: 25-750 μg/mL kaolin, global fit, text b200 calls the values IC90;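 note: readout is the rate of fluorogenic substrate cleavage in rfu per min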
T1 construct: Platelet poor plasma (PPP) obtained from human wholeblood; from tissue
Protocol: Platelet poor plasma (PPP) obtained from human wholeblood, anticoagulated with Na-Citrate, is incubated with various concentrations of the test compound together with either 25, 75, 250, or 750 μg/mL kaolin in assay buffer for 20 min at 37° C. such that for each kaolin dose used a concentration response is obtained for the test compound.

Human PKK [2] = target: T2, Human PKK (Homo sapiens, UniProt P03952); test: Inhibition of PKK using an endpoint assay (human PKK); settings: fluorogenic substrate H-Pro-Phe-Arg-AMC, 1 h room temperature, method names human or rat PKK, table does not say which
T2 construct: purchased Enzyme Research Laboratories
Procedure, shortened: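 Endpoint fluorescence (ex 355 nm, em 460 nm) after stopping with 1 μM final PPACK II. Buffer: Tris 100 mM pH 7.8, NaCl 150 mM, BSA 0.1%, Tween20 0.05%, with 1% DMSO present; enzyme is human plasma kallikrein.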

human TK1 = target: T3, human TK1 (Homo sapiens, UniProt P06870); test: Inhibition of TK1 (Ki); settings: activated human TK1, substrate H-Pro-Phe-Arg-AMC, 24° C.
T3 construct: purchased R&D Systems
Procedure, shortened: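 Trypsin-activated human TK1 (31.25 nM) incubated at 24° C with 0.1 mM H-Pro-Phe-Arg-AMC and compound in Tris pH 7.8, 150 mM NaCl, 0.1% BSA, 0.05% Tween20, 1% DMSO. AMC fluorescence (ex 350/em 450 nm) read kinetically over 16 min; IC50 from four-parameter fit, converted to Ki using substrate KM.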

Human PKK [3] = target: T2, Human PKK; test: Inhibition of PKK (Ki); settings: substrate KM, enzyme PKK
Protocol: The ability of compounds of formula (I) to inhibit plasma kallikrein (PKK), Factor XIIa (FXIIa), Factor XIa (FXIa), Factor Xa (FXa), Factor IIa (alpha-thrombin; FIIa), plasmin, trypsin, tissue kallikrein 1 (TK1), Factor VIIa (FVIIa), or FVIIa complexed with Tissue Factor, phospholipids and CaCl2 (FVIIa/TF/PL/CaCl2) is determined using the following biochemical assays in assay buffer (100 mM Tris, 150 mM NaCL, adjusted to a pH of 7.8 with HCl, and containing 0.1% (w/v) BSA and 0.05% (v/v) Tween20) in the presence of 1% (v/v) DMSO:
Human PKK (1.78 nM or 0.025 U/mL; Enzyme Research Laboratories) is incubated at 24° C. with 0.25 mM fluorogenic substrate H-Pro-Phe-Arg-AMC (11295 from Bachem) and various concentrations of the test compound in assay buffer. Measurements are performed in a kinetic interval every 2nd minute for 16 min using a Spectramax M5 (Molecular Devices) with the following settings of the wavelength excitation of 350 nm and wavelength emission of 450 nm.
The pIC50 values are then fitted using a four-parametric fitting procedure using GraphPad Prism (version 6; GraphPad Software, Inc.). Respective Ki values are obtained by correction of the IC50 values for the respective KM value of the used substrate (see Table A for the obtained KM values of the used substrates) using the following formula:
[formula] Where the IC50 is in molar and the KM value in mM.

T3 sequence (P06870 25-262): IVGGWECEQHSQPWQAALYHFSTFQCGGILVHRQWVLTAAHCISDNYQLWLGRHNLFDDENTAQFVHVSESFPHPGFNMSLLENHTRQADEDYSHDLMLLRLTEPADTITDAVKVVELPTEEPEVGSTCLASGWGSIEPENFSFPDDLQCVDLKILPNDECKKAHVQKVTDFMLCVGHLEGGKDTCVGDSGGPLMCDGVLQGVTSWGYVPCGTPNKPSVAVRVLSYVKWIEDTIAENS
T1 sequence (P03952 391-638 limits assumed): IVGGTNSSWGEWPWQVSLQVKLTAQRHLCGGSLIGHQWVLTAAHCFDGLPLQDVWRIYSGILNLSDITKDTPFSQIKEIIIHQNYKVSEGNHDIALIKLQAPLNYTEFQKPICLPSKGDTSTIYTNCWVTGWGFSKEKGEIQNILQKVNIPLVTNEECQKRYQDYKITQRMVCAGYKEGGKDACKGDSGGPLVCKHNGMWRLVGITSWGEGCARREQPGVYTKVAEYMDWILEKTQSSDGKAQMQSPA
T1 sequence (P03952 20-390 limits assumed): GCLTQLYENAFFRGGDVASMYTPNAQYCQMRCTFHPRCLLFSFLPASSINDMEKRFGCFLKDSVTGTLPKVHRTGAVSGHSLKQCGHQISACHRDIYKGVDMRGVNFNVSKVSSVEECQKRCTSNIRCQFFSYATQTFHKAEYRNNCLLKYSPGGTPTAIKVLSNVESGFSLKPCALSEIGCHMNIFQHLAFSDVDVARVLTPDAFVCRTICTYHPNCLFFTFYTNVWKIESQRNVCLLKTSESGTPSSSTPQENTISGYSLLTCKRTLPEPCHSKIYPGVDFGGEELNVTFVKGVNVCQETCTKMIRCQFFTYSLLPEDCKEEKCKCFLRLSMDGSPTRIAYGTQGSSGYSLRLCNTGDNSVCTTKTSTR
T2 sequence (P03952 20-390 limits assumed): as above
T2 sequence (P03952 391-638 limits assumed): as the sequence (P03952 391-638 limits assumed) above

IC50 [1]	IC50 (Human PKK [2])	Ki (human TK1)	Km (Human PKK [3])	SMILES
253 nM	0.4 nM	> 10000 nM		Cc1c(Cn2cc(C(=O)N[C@@H]3CCc4c3ncn4C)cn2)ccc(N2CC3CC3C2)c1C#N (stereo partly drawn) [Example 193, 1-[(4-{3-azabicyclo[3.1.0]hexan-3-yl}-3-cyano-2-methylphenyl)methyl]-N-[(4R)-1-methyl-1H,4H,5H,6H-cyclopenta[d]imidazol-4-yl]-1H-pyrazole-4-carboxamide]
350 nM	1.5 nM	> 10000 nM		Cn1cnc2c1CC[C@H]2NC(=O)c1cn(Cc2ccc(N3CC4CC4C3)c(C#N)c2)cn1 (stereo partly drawn) [Example 196, 1-[(4-{3-azabicyclo[3.1.0]hexan-3-yl}-3-cyanophenyl)methyl]-N-[(4R)-1-methyl-1H,4H,5H,6H-cyclopenta[d]imidazol-4-yl]-1H-imidazole-4-carboxamide]
398 nM	0.8 nM	> 10000 nM		Cn1cnc2c1CC[C@H]2NC(=O)c1cnn(Cc2ccc(N3CC4CC4C3)c(C#N)c2F)c1 (stereo partly drawn) [Example 198, 1-[(4-{3-azabicyclo[3.1.0]hexan-3-yl}-3-cyano-2-fluorophenyl)methyl]-N-[(4R)-1-methyl-1H,4H,5H,6H-cyclopenta[d]imidazol-4-yl]-1H-pyrazole-4-carboxamide]
624 nM	0.9 nM	> 10000 nM		Cc1nc(N2CC3CC3C2)ccc1Cn1cc(C(=O)N[C@@H]2CCc3c2ncn3C)c(CO)n1 (stereo partly drawn) [Example 217, 1-[(6-{3-Azabicyclo[3.1.0]hexan-3-yl}-2-methylpyridin-3-yl)methyl]-3-(hydroxymethyl)-N-[(4R)-1-methyl-1H,4H,5H,6H-cyclopenta[d]imidazol-4-yl]-1H-pyrazole-4-carboxamide]
646 nM	3.5 nM	> 10000 nM		Cc1nc(N2CC3C(C2)C3(F)F)ncc1Cn1cc(C(=O)N[C@@H]2CCc3c2ncn3C)cn1 (stereo partly drawn) [Example 218, 1-[(2-{6,6-Difluoro-3-azabicyclo[3.1.0]hexan-3-yl}-4-methylpyrimidin-5-yl)methyl]-N-[(4R)-1-methyl-1H,4H,5H,6H-cyclopenta[d]imidazol-4-yl]-1H-pyrazole-4-carboxamide]
			160 µM	Cc1cc(=O)oc2cc(NC(=O)[C@H](CCCNC(=N)N)NC(=O)[C@H](Cc3ccccc3)NC(=O)[C@@H]3CCCN3)ccc12 [Example I1295, H-Pro-Phe-Arg-AMC] (H-Pro-Phe-Arg-{AMC})
